Test results: patent US20090054471A1, “PYRIDOPYRAZOLOPYRIMIDINE COMPOUNDS AND THEIR USES AS ANTI-CANCER AND ANTI-DIABETE DRUGS” (Smithkline Beecham Corporation, priority 2005, published 2009)
pIC50: −log10 of the molar value.

How the values were obtained:
Assay type in all cases: biochemical
[1] = target: T1, ErbB-2 (Homo sapiens, UniProt P04626); test: ErbB-2 protein tyrosine kinase substrate phosphorylation assay (SPA); details: 10 μM ATP, 11-point dose-response 0.0001 to 10 μM; read-out: ErbB2
T1 construct: made in house; host or cells: baculovirus expression system (insect cells)
T1 sequence (P04626 676-1255 limits assumed): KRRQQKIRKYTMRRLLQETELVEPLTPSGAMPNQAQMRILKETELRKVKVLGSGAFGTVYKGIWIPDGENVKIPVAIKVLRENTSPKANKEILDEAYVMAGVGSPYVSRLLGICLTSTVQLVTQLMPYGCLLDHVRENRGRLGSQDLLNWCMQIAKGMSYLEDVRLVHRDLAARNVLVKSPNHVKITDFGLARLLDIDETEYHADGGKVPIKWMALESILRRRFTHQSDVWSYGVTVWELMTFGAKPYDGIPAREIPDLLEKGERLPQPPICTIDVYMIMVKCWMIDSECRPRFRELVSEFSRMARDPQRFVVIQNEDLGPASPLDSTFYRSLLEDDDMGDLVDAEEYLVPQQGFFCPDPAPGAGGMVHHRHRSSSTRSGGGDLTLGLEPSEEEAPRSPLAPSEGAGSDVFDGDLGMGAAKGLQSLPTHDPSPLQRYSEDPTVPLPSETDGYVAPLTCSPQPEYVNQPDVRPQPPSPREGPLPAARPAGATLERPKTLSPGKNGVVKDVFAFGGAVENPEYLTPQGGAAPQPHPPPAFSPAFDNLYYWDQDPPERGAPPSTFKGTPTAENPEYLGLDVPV
Method: (§1) Compounds of the present invention were tested for EGFR or ErbB-2 protein tyrosine kinase inhibitory activity in substrate phosphorylation assays using enzymes purified from a baculovirus expression system.
(§2) The method measures the ability of the isolated enzyme to catalyse the transfer of the γ-phosphate from ATP onto tyrosine residues in a biotinylated synthetic peptide (biotin-Ahx-[…]-amide). Reactions were performed in 96 or 384 well polystyrene plates in a final volume of 20 or 45 μl. […] ATP per reaction, 2 μM peptide substrate, and 1 mM dithiothreitol. Reactions were initiated by adding 1 pmol (20 nM) per reaction of the indicated enzyme.
(§3) Data Calculations—Peptide substrate phosphorylation reactions were performed as described above. The example compound indicated was serially diluted 1 to 3 and added to the reactions to produce an 11-point dose-response curve ranging from 0.0001 to 10 μM.

[2] = target: T2, vascular endothelial growth factor receptor 2 (VEGFR2) (Homo sapiens, UniProt P35968); test: VEGFR2 kinase assay (homogeneous time-resolved fluorescence); details: 75 μM ATP, 11-point dose-response 0.0001 to 10 μM; read-out: VEGF-R
T2 construct: The catalytic domains of vascular endothelial growth factor receptor 2 (VEGFR2) was expressed and purified; made in house
T2 sequence (P35968 834-1162 limits assumed): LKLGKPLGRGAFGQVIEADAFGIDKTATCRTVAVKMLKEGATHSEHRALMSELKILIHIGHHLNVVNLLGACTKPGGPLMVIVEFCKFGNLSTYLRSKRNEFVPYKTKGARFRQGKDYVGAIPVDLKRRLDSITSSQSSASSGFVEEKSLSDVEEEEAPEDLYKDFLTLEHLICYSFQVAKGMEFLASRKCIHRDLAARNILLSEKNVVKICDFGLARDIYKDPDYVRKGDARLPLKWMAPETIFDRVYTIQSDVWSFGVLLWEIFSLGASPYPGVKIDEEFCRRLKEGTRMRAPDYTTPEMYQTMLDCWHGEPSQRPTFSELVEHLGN
Method: The catalytic domains of vascular endothelial growth factor receptor 2 (VEGFR2) was expressed and purified using methods similar to those described for ErbB-2 and EGFR. Kinase assays were performed as described above with the following modifications: VEGFR2 assays contained 10 nM enzyme, 100 mM HEPES, pH 7.5, 0.1 mg/ml bovine serum albumin, 0.1 mM dithiothreitol, 360 nM peptide A, 75 μM ATP, and 5 mM MgCl2. The reaction was allowed to proceed for 40 min. Product was detected using a homogeneous time-resolved fluorescence procedure (Park, Y.-W., Cummings, R. T., Wu, L., Zheng, S., Cameron, P. M., Woods, A., Zaller, D. M., Marcy, A. I., and Hermes, J. D. (1999) Anal. Biochem. 269, 94-104). Briefly, the reactions were quenched by adding 100 μl of 100 mM HEPES, pH 7.5, 100 mM EDTA, 45 nM streptavidin-linked allophycocyanin (Molecular Probes, Eugene, Oreg.), and 3 nM europium-conjugated anti-phosphotyrosine antibody (Wallac, Turku, Finland). The product was detected using a Victor plate reader (Wallac, Turku, Finland) with a time delay at 665 nm.
as §3

[3] = target: T3, Human GSK3b (Homo sapiens, UniProt P49841); test: GSK3b kinase scintillation proximity assay; details: 2.5 uM ATP, 11-point dose-response 0.0001 to 10 μM; read-out: GSK3
T3 construct: 6-His (N); made in house; host or cells: E. coli
T3 sequence (P49841 whole entry): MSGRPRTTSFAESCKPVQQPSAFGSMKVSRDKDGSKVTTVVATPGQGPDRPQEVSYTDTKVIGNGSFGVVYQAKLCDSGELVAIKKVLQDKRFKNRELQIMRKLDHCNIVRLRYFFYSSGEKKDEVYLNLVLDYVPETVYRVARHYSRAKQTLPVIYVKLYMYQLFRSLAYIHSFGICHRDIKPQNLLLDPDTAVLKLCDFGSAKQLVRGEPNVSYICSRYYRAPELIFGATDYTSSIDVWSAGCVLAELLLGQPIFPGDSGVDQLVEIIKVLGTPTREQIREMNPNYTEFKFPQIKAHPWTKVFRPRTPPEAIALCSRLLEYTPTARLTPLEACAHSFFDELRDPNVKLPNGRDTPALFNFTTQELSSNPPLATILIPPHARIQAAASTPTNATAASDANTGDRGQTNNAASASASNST
Method: Human GSK3b was expressed in E. coli with a 6-His tag at the N-terminus. The protein was purified using metal-chelate affinity chromatography. The incorporation of radioactive phosphate into a biotinylated synthetic peptide, Biotin-Ahx-[…](PO3)YR-amide was detected using a scintillation proximity assay (SPA) method as described above. Assay conditions were as follows: 100 mM HEPES, pH 7.2, 10 mM MgCl2, 0.3 mg/mL heparin sulfate, 0.1 mg/mL BSA, 1 mM DTT, 2.5 uM ATP, 0.6 uCi/rxn ^33P-ATP, 1.2 ug/mL GSK-3b protein. The plates are incubated at room temperature for 19 minutes prior to the addition of SPA stop solution.
as §3

[4] = target: T4, EGFR (Homo sapiens, UniProt P00533); test: EGFR protein tyrosine kinase substrate phosphorylation assay (SPA); details: 10 μM ATP, 11-point dose-response 0.0001 to 10 μM
T4 construct: made in house; host or cells: baculovirus expression system (insect cells)
T4 sequence (P00533 669-1210 limits assumed): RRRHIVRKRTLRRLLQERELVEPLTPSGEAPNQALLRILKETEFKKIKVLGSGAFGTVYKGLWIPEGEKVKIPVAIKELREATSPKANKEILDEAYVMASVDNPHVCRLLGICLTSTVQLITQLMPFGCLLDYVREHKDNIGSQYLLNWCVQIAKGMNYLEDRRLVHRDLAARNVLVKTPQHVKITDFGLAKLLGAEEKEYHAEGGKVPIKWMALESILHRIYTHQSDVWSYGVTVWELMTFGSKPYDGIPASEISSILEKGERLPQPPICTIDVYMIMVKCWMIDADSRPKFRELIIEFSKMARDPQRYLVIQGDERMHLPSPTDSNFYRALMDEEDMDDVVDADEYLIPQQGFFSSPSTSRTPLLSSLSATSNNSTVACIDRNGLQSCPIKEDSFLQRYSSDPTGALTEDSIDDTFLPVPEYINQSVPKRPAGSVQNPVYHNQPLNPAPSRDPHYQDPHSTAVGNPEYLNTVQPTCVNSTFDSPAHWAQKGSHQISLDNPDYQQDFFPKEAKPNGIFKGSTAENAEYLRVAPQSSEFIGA
Method: as §1, §2, §3

| pIC50 [1] | pIC50 [2] | pIC50 [3] | pIC50 [4] | Compound |
| --- | --- | --- | --- | --- |
| < 5.00 | 6.00 to 7.00 | 6.00 to 7.00 | < 5.00 | O=C(Nc1cccc(C(F)(F)F)c1)Nc1ncnc2nn3ccccc3c12 [Example 9, N-pyrido[1′,2′:1,5]pyrazolo[3,4-d]pyrimidin-4-yl-N′-[3-(trifluoromethyl)phenyl]urea] |
|  | < 5.00 | < 5.00 |  | Fc1cccc(COc2ccc(Nc3ncnc4nn5ccccc5c34)cc2Cl)c1 [Example 5, N-(3-chloro-4-{[(3-fluorophenyl)methyl]oxy}phenyl)-pyrido[1′,2′:1,5]pyrazolo[3,4-d]pyrimidin-4-amine] |
| < 5.00 | 5.00 to 6.00 | 5.00 to 6.00 | < 5.00 | O=C(Nc1ccc(Br)cc1)Nc1ncnc2nn3ccccc3c12 [Example 11, N-(4-bromophenyl)-N′-pyrido[1′,2′:1,5]pyrazolo[3,4-d]pyrimidin-4-ylurea] |
|  | < 5.00 | < 5.00 |  | Fc1ccc(Nc2ncnc3nn4ccccc4c23)cc1Cl [Example 4, N-(3-chloro-4-fluorophenyl)pyrido[1′,2′:1,5]pyrazolo[3,4-d]pyrimidin-4-amine] |
| 6.00 to 7.00 | < 5.00 | < 5.00 | > 7.00 | Clc1cc(Nc2ncnc3nn4ccccc4c23)ccc1OCc1ccccc1 [Example 6, N-{3-chloro-4-[(phenylmethyl)oxy]phenyl}pyrido[1′,2′:1,5]pyrazolo[3,4-d]pyrimidin-4-amine] |
| < 5.00 | 5.00 to 6.00 | 5.00 to 6.00 | < 5.00 | O=C(Nc1ccc(C(F)(F)F)cc1)Nc1ncnc2nn3ccccc3c12 [Example 12, N-pyrido[1′,2′:1,5]pyrazolo[3,4-d]pyrimidin-4-yl-N′-[4-(trifluoromethyl)phenyl]urea] |
| < 5.00 | < 5.00 | < 5.00 | < 5.00 | Nc1ncnc2nn3ccccc3c12 [Example 1, pyrido[1′,2′:1,5]pyrazolo[3,4-d]pyrimidin-4-amine] |
| 5.00 to 6.00 | < 5.00 | < 5.00 | 5.00 to 6.00 | c1ccc(Cc2nc3ccc(Nc4ncnc5nn6ccccc6c45)cc3[nH]2)cc1 [Example 7, N-[2-(phenylmethyl)-1H-benzimidazol-5-yl]pyrido[1′,2′:1,5]pyrazolo-[3,4-d]pyrimidin-4-amine] |
| < 5.00 | < 5.00 | 6.00 to 7.00 | < 5.00 | O=C(Nc1cccc([N+](=O)[O-])c1)Nc1ncnc2nn3ccccc3c12 [Example 10, N-(3-nitrophenyl)-N′-pyrido[1′,2′:1,5]pyrazolo[3,4-d]pyrimidin-4-ylurea] |
| < 5.00 | 6.00 to 7.00 | 6.00 to 7.00 | < 5.00 | N#Cc1cccc(NC(=O)Nc2ncnc3nn4ccccc4c23)c1 [Example 8, N-(3-cyanophenyl)-N′-pyrido[1′,2′:1,5]pyrazolo[3,4-d]pyrimidin-4-ylurea] |
| < 5.00 | 6.00 to 7.00 | < 5.00 | < 5.00 | O=C(Nc1ccc(F)cc1)Nc1ncnc2nn3ccccc3c12 [Example 13, N-(4-fluorophenyl)-N′-pyrido[1′,2′:1,5]pyrazolo[3,4-d]pyrimidin-4-ylurea] |
| < 5.00 | < 5.00 | 5.00 to 6.00 | 5.00 to 6.00 | C(=NNc1ncnc2nn3ccccc3c12)c1c[nH]c2ccccc12 [Example 14, 1H-indole-3-carbaldehyde pyrido[1′,2′:1,5]pyrazolo[3,4-d]pyrimidin-4-ylhydrazone] |
